Reference: article PMC4554834 (Bioorganic & medicinal chemistry, 2015)

Key:
[1] = target: T1, human OX2 receptors (Homo sapiens, UniProt O43614); assay: Calcium mobilization Ke; assay type: cell-based
T1 sequence (O43614 1-444): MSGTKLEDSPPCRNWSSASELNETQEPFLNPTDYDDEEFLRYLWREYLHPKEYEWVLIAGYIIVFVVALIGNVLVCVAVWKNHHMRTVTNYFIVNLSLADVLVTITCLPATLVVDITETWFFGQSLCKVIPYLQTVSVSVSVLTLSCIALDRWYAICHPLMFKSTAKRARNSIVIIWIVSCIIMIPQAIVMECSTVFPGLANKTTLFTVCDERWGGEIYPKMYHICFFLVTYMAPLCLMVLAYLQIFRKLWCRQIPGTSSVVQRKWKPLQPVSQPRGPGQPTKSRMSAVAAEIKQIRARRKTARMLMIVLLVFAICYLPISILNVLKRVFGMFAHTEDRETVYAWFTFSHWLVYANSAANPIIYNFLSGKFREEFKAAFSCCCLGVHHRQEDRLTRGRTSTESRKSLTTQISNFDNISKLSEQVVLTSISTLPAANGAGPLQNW

[2] = target: T2, human OX1 receptors (Homo sapiens, UniProt O43613); assay: Calcium mobilization Ke; assay type: cell-based; details: for OX1 potency (in words): qualitative statement
T2 sequence (O43613 1-425): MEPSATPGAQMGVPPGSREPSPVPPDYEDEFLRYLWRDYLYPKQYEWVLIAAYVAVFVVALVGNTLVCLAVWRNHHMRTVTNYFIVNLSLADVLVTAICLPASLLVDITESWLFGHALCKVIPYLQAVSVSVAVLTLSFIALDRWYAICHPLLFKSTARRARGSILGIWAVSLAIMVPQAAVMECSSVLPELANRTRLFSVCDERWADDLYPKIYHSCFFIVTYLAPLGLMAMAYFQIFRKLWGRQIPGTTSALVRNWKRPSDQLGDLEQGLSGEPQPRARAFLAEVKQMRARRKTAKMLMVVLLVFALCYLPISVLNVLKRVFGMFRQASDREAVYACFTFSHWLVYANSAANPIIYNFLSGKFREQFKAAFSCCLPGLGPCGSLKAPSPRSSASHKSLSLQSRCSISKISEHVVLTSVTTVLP

[3] = system: OX2 receptor; details: cited from earlier work
[4] = system: OX1; details: cited from earlier work
[5] = cited from earlier work

Structure (SMILES) | Kb [1] [nM] | Kb [2] [nM] | also measured
COc1ccc(CC2c3ccc(OS(C)(=O)=O)cc3CCN2CC(=O)NCc2ccccc2)cc1OC (stereo not shown) [18a, 2-[(Benzylcarbamoyl)methyl]-1-[(3,4-dimethoxyphenyl)methyl]-1,2,3,4-tetrahydroisoquinolin-6-yl methanesulfonate] | 1330 ± 260 | > 10000 | –
CNC(=O)[C@@H](c1ccccc1)N1CCc2cc(OC)c(OC)cc2[C@@H]1CCc1ccc(C(F)(F)F)cc1 [Almorexant, almorexant] | – | – | mode of antagonism at the OX2 receptor [3]: insurmountable antagonist
CCC(=O)Oc1ccc2c(c1)CCN(CC(=O)NCc1ccccc1)C2Cc1ccc(OC)c(OC)c1 (stereo not shown) [compound 19, 2-[(Benzylcarbamoyl)methyl]-1-[(3,4-dimethoxyphenyl)methyl]-1,2,3,4-tetrahydroisoquinolin-6-yl propanoate] | 1290 ± 130 | > 10000 | –
CCOC(=O)Nc1ccc2c(c1)CCN(CC(=O)NCc1ccccc1)C2Cc1ccc(OC)c(OC)c1 (stereo not shown) [23b, Ethyl N-{2-[(benzylcarbamoyl)methyl]-1-[(3,4-dimethoxyphenyl)methyl]-1,2,3,4-tetrahydroisoquinolin-6-yl}carbamate] | > 10000 | > 10000 | OX1 potency (in words) [2]: not active
CCOC(=O)CCCCCCOc1ccc2c(c1)CCN(CC(=O)NCc1ccccc1)C2Cc1ccc(OC)c(OC)c1 (stereo not shown) [17f, Ethyl 7-({2-[(benzylcarbamoyl)methyl]-1-[(3,4-dimethoxyphenyl)methyl]-1,2,3,4-tetrahydroisoquinolin-6-yl}oxy)heptanoate] | – | > 10000 | –
CCCOc1ccc2c(c1)C(Cc1ccc(OC)c(OC)c1)N(CC(=O)NCc1ccccc1)CC2 (stereo not shown) [10c, N-Benzyl-2-{1-[(3,4-dimethoxyphenyl)methyl]-7-propoxy-1,2,3,4-tetrahydroisoquinolin-2-yl}acetamide] | 2550 ± 260 | 23.7 ± 7.9 | mode of antagonism at OX1 ([2]; 15 minute pre-incubation): competitive antagonism; selectivity for OX1 over OX2 ([2]; OX2 versus OX1 Ke): > 100 fold
COc1ccc(CC2c3cc(OC(C)C)ccc3CCN2CC(=O)NCc2ccccc2)cc1OC (stereo not shown) [10d, N-Benzyl-2-{1-[(3,4-dimethoxyphenyl)methyl]-7-(propan-2-yloxy)-1,2,3,4-tetrahydroisoquinolin-2-yl}acetamide] | – | 49.7 ± 11 | –
COc1ccc(CC2c3ccc(OS(=O)(=O)c4ccccc4)cc3CCN2CC(=O)NCc2ccccc2)cc1OC (stereo not shown) [18b, 2-[(Benzylcarbamoyl)methyl]-1-[(3,4-dimethoxyphenyl)methyl]-1,2,3,4-tetrahydroisoquinolin-6-yl benzenesulfonate] | – | > 10000 | –
COC(=O)Nc1ccc2c(c1)CCN(CC(=O)NCc1ccccc1)C2Cc1ccc(OC)c(OC)c1 (stereo not shown) [23a, Methyl N-{2-[(benzylcarbamoyl)methyl]-1-[(3,4-dimethoxyphenyl)methyl]-1,2,3,4-tetrahydroisoquinolin-6-yl}carbamate] | > 10000 | 2400 ± 320 | OX1 potency (in words) [2]: slight potency
Cc1nc2ccc(NC(=O)Nc3ccnc4cccnc34)cc2o1 [SB-334867] | – | – | selectivity for OX1 over OX2 [4]: ~ 50 fold
COc1ccc2c(c1)C(Cc1ccc(OC)c(OC)c1)N(CC(=O)NCc1ccccc1)CC2 (stereo not shown) [10a, N-Benzyl-2-{1-[(3,4-dimethoxyphenyl)methyl]-7-methoxy-1,2,3,4-tetrahydroisoquinolin-2-yl}acetamide] | 1680 ± 330 | 512 ± 36 | –
COc1cc2c(cc1OC)CN(C(=O)[C@@H](NCc1ccncc1)C(C)(C)C)CC2 [TCS-OX2-29] | – | – | effect on cocaine self-administration [5]: no effect; effect on cue-induced reinstatement ([5]; cocaine): no effect

More lines, main results first:

Kb [1] [nM] | Kb [2] [nM] | Structure (SMILES) | also measured
> 10000 | > 10000 | CCCCCC(=O)Nc1ccc2c(c1)CCN(CC(=O)NCc1ccccc1)C2Cc1ccc(OC)c(OC)c1 (stereo not shown) [28b, N-{2-[(Benzylcarbamoyl)methyl]-1-[(3,4-dimethoxyphenyl)methyl]-1,2,3,4-tetrahydroisoquinolin-6-yl}hexanamide] | –
> 10000 | 591 ± 67 | CCOC(=O)CCCNc1ccc2c(c1)CCN(CC(=O)NCc1ccccc1)C2Cc1ccc(OC)c(OC)c1 (stereo not shown) [26d, Ethyl 4-({2-[(benzylcarbamoyl)methyl]-1-[(3,4-dimethoxyphenyl)methyl]-1,2,3,4-tetrahydroisoquinolin-6-yl}amino)butanoate] | OX1 potency (in words) [2]: some activity
– | > 10000 | COc1ccc(CC2c3ccc(NC(=O)Nc4ccccc4)cc3CCN2CC(=O)NCc2ccccc2)cc1OC (stereo not shown) [28d, N-Benzyl-2-{1-[(3,4-dimethoxyphenyl)methyl]-6-[(phenylcarbamoyl)amino]-1,2,3,4-tetrahydroisoquinolin-2-yl}acetamide] | OX1 potency (in words) [2]: no significant potency
– | > 10000 | COc1ccc(CC2c3ccc(N4CCCCC4)cc3CCN2CC(=O)NCc2ccccc2)cc1OC (stereo not shown) [25q, N-Benzyl-2-{1-[(3,4-dimethoxyphenyl)methyl]-6-(piperidin-1-yl)-1,2,3,4-tetrahydroisoquinolin-2-yl}acetamide] | OX1 potency (in words) [2]: no detectable potency
– | > 10000 | COc1ccc(CC2c3ccc(NC(=O)c4ccccc4)cc3CCN2CC(=O)NCc2ccccc2)cc1OC (stereo not shown) [28c, N-{2-[(Benzylcarbamoyl)methyl]-1-[(3,4-dimethoxyphenyl)methyl]-1,2,3,4-tetrahydroisoquinolin-6-yl}benzamide] | –
– | 1600 ± 190 | COC(=O)CCCCNc1ccc2c(c1)CCN(CC(=O)NCc1ccccc1)C2Cc1ccc(OC)c(OC)c1 (stereo not shown) [26f, Methyl 5-({2-[(benzylcarbamoyl)methyl]-1-[(3,4-dimethoxyphenyl)methyl]-1,2,3,4-tetrahydroisoquinolin-6-yl}amino)pentanoate] | –
– | 5230 ± 680 | CCCCCCNC(=O)Nc1ccc2c(c1)CCN(CC(=O)NCc1ccccc1)C2Cc1ccc(OC)c(OC)c1 (stereo not shown) [28e, N-Benzyl-2-{1-[(3,4-dimethoxyphenyl)methyl]-6-[(hexylcarbamoyl)amino]-1,2,3,4-tetrahydroisoquinolin-2-yl}acetamide] | OX1 potency (in words) [2]: no significant potency
– | > 10000 | CCCCCNc1ccc2c(c1)CCN(CC(=O)NCc1ccccc1)C2Cc1ccc(OC)c(OC)c1 (stereo not shown) [25r, N-Benzyl-2-{1-[(3,4-dimethoxyphenyl)methyl]-6-(pentylamino)-1,2,3,4-tetrahydroisoquinolin-2-yl}acetamide] | –
– | > 10000 | CCOC(=O)CCCCCCNc1ccc2c(c1)CCN(CC(=O)NCc1ccccc1)C2Cc1ccc(OC)c(OC)c1 (stereo not shown) [26g, Ethyl 7-({2-[(benzylcarbamoyl)methyl]-1-[(3,4-dimethoxyphenyl)methyl]-1,2,3,4-tetrahydroisoquinolin-6-yl}amino)heptanoate] | –
– | > 10000 | CCOC(=O)C(C)Nc1ccc2c(c1)CCN(CC(=O)NCc1ccccc1)C2Cc1ccc(OC)c(OC)c1 (stereo not shown) [26b, Ethyl 2-({2-[(benzylcarbamoyl)methyl]-1-[(3,4-dimethoxyphenyl)methyl]-1,2,3,4-tetrahydroisoquinolin-6-yl}amino)propanoate] | –
– | 1010 ± 200 | COc1ccc(CC2c3ccc(NCCCC(=O)OC(C)(C)C)cc3CCN2CC(=O)NCc2ccccc2)cc1OC (stereo not shown) [26e, Tert-butyl 4-({2-[(benzylcarbamoyl)methyl]-1-[(3,4-dimethoxyphenyl)methyl]-1,2,3,4-tetrahydroisoquinolin-6-yl}amino)butanoate] | mode of antagonism at OX1 ([2]; 15 minute pre-incubation): insurmountable antagonism; mode of antagonism at OX1 ([2]; pre-incubation increased to 45 min and 60 min): competitive antagonists; mode of antagonism at OX1 ([2]; simultaneous addition of antagonist and Orexin A): competitive antagonists
